Measured values from PubChem BioAssay (NCI).
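Compound exposure: 48 hours, 5 concentrations, 96-well plates. The concentration for full growth arrest is given as TGI.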

Assays:
Test in all cases: growth of human tumour cells (NCI), 48 h
KM12 colon = test system: KM12 colon
LOX IMVI melanoma = test system: LOX IMVI melanoma
SW-620 colon = test system: SW-620 colon
HL-60(TB) leukemia = test system: HL-60(TB) leukemia
MCF7 breast = test system: MCF7 breast
SF-539 CNS = test system: SF-539 CNS
UO-31 renal = test system: UO-31 renal
SK-MEL-5 melanoma = test system: SK-MEL-5 melanoma
OVCAR-8 ovarian = test system: OVCAR-8 ovarian
NCI-H226 lung = test system: NCI-H226 lung

SMILES | TGI (KM12 colon) [µM] | TGI (LOX IMVI melanoma) [µM] | TGI (SW-620 colon) [µM] | TGI (HL-60(TB) leukemia) [µM] | TGI (MCF7 breast) [µM] | TGI (SF-539 CNS) [µM] | TGI (UO-31 renal) [µM] | TGI (SK-MEL-5 melanoma) [µM] | TGI (OVCAR-8 ovarian) [µM] | TGI (NCI-H226 lung) [µM]
C=CCC(CNC(=O)OCc1ccccc1)O[Si](C)(C)C(C)(C)C (stereo not given) | > 100 | 47.1 | > 100 | 51.9 | 57.7 | 93.2 | 63.1 | 31.8 | > 100 | 85.8
Cc1cccc(C(C)(C)C)c1NC(=O)/C(Cc1nc2ccc([N+](=O)[O-])cc2[nH]c1=O)=N/NC(=O)C[N+](C)(C)C | > 100 | > 100 | > 100 | > 100 | > 100 | > 100 | > 100 | > 100 | > 100 | > 100
CN(C(=O)C1(C(=O)C=[N+]=[N-])CC1)c1ccccc1 | > 100 | > 100 | > 100 | > 100 | > 100 | > 100 | > 100 | > 100 | > 100 | > 100
CNC(=O)CCC(NC(C)=O)C(=O)NC(Cc1ccc(NC(=O)CCCCC(C)=O)cc1)C(=O)NC(CCC(=O)NC)C(=O)NC (stereo not given) | > 100 | > 100 | > 100 | > 100 | > 100 | > 100 | > 100 | > 100 | > 100 | > 100
O=C(C1=C(C(=O)c2ccccc2)SC2(S1)C(C(=O)c1ccccc1)=C(C(=O)c1ccccc1)Sc1c2ssc1=O)c1ccccc1 | 92.7 | > 100 | > 100 | 69.8 | > 100 | 57.6 | > 100 | > 100 | > 100 | 55
O=C(CC(O)(C(F)(F)F)C(F)(F)F)C(CCCl)C(O)(C(F)(F)F)C(F)(F)F (stereo not given) | > 100 | > 100 | > 100 | 86.5 | > 100 | > 100 | 73.3 | 71 | 83.9 | > 100
CC1=CC(O)C(O)C2(C)C1CC1OC(=O)C(O)C3C(C)C(O)C4(O)OCC13C42 (stereo not given) | 389 | 156 | 224 | 189 | 464 | 237 | 518 | 142 | > 570 | 243
COC(=O)C(/C(=N/NC(=O)c1ccncc1)C(=O)Nc1ccccc1OC)c1nc2ccc(Cl)cc2[nH]c1=O (stereo not given) | > 100 | > 100 | > 100 | > 100 | > 100 | > 100 | > 100 | > 100 | > 100 | > 100
Cc1cc2ccccc2n1CC(=O)NCC(C)C | > 100 | > 100 | > 100 | > 100 | > 100 | > 100 | > 100 | > 100 | > 100 | > 100
Nc1ccc2c(c1)C(=O)c1ccccc1-2 | > 100 | > 100 | > 100 | > 100 | > 100 | > 100 | > 100 | > 100 | > 100 | > 100
CC1=C(C(=O)OCCc2ccc([N+](=O)[O-])cc2)C(c2ccccc2[N+](=O)[O-])C(C(=O)OC(C)C)=C(C)N1 (stereo not given) | > 100 | > 100 | > 100 | 8.48 | > 100 | > 100 | > 100 | 5.14 | > 100 | 65.3
CC(NC(=O)/C(=C/c1ccccc1O)NC(=O)c1ccccc1)C(=O)O (stereo not given) | > 100 | > 100 | > 100 | > 100 | 21.6 | 46.4 | 34.6 | > 100 | 29.1 | 45.5
O=C(N/N=C\c1cccc2ccccc12)Nc1ccc([N+](=O)[O-])cc1 | > 100 | > 100 | > 100 | > 100 | > 100 | > 100 | > 61.8 | > 87.2 | > 53.5 | > 100
NC(Cc1cc(I)c(O)c(I)c1)C(=O)O (stereo not given) | > 500 | > 361 | > 500 | > 500 | > 500 | > 500 | > 500 | > 500 | > 500 | > 500
OC1CCCC1C(O)(C(F)(F)F)C(F)(F)F (stereo not given) | > 100 | > 100 | > 100 | > 100 | > 100 | > 100 | > 100 | > 100 | > 100 | > 100
CC(=O)/C=C/C=C(\C)CC/C=C(\C)CC(C)C | 95.3 | 34 | 35.3 | 33.4 | 57.9 | 46.8 | > 100 | 35.5 | 65.8 | 68.6
CC(=O)O[C@H]1C#C/C=C\C#CC[C@@H]2C(=O)N(C(=O)OC(C)(C)C)[C@@H]12 | > 86.7 | 45.3 | > 100 | 25.6 | > 100 | 18.5 | 31.2 | > 100 | > 82.3 | 84.8
